target: T1, GST-tagged-Wee1 kinase (Homo sapiens, UniProt P30291); test: Wee1 time-resolved fluorescence equilibrium binding assay (displacement of Oregon Green-labeled ATP-competitive kinase probe); conditions: read-out: Wee-1 inhibition (Ki)
T1 construct: purchased Carnabio (Carna Biosciences) 05-177
In short: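 Ki values derive from competitive displacement, under equilibrium, of a fast-reversible ATP-site Oregon Green kinase probe from GST-tagged Wee1, detected by time-resolved fluorescence.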

T1 sequence (P30291 whole entry): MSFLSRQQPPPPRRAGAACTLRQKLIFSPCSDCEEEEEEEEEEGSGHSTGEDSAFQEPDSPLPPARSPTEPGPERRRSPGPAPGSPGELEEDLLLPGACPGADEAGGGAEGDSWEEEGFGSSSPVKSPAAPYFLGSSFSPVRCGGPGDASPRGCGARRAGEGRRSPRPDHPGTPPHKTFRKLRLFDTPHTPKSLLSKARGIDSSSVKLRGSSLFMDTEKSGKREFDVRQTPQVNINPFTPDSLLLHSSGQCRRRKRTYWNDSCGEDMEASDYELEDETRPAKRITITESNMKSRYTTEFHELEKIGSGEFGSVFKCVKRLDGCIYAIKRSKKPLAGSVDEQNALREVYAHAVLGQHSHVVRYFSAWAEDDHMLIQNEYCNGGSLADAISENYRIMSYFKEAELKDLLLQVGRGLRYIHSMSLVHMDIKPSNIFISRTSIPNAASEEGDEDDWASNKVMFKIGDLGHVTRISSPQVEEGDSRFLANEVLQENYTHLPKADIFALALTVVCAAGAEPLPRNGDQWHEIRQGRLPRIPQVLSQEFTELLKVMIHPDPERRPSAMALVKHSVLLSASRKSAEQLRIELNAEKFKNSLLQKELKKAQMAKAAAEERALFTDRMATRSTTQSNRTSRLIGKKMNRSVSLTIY

SMILES | Ki [µM]
CN1CCc2ccc(Nc3ncc4c(=O)n(-c5ccccc5Cl)c5nccn5c4n3)cc2CC1 [Example 107, 6-(2-chlorophenyl)-2-[(3-methyl-2,3,4,5-tetrahydro-1H-3-benzazepin-7-yl)amino]imidazo[1,2-a]pyrimido[5,4-e]pyrimidin-5(6H)-one] | < 0.01
CCC(CC)CN1Cc2cc(Nc3ncc4c(=O)n(-c5ccccc5Cl)c5nccn5c4n3)ccc2C(C)(C)C1 [Example 117, 6-(2-chlorophenyl)-2-{[2-(2-ethylbutyl)-4,4-dimethyl-1,2,3,4-tetrahydroisoquinolin-7-yl]amino}imidazo[1,2-a]pyrimido[5,4-e]pyrimidin-5(6H)-one] | 0.01 to 0.1
CN1CCN(c2ccc(Nc3ncc4c(=O)n(C5CCCCC5)c5nccn5c4n3)cc2)CC1 [Example 24, 6-cyclohexyl-2-{[4-(4-methylpiperazin-1-yl)phenyl]amino}imidazo[1,2-a]pyrimido[5,4-e]pyrimidin-5(6H)-one] | > 0.1
CC(C)(C)OC(=O)N1CCc2ccc(Nc3ncc4c(=O)n(-c5ccccc5Cl)c5nccn5c4n3)cc2C1 [Example 20, tert-butyl 7-{[6-(2-chlorophenyl)-5-oxo-5,6-dihydroimidazo[1,2-a]pyrimido[5,4-e]pyrimidin-2-yl]amino}-3,4-dihydroisoquinoline-2(1H)-carboxylate] | 0.01 to 0.1
Nc1ccc(Nc2ncc3c(=O)n(-c4ccccc4Cl)c4nccn4c3n2)cc1 [Example 56, 2-[(4-aminophenyl)amino]-6-(2-chlorophenyl)imidazo[1,2-a]pyrimido[5,4-e]pyrimidin-5(6H)-one] | 0.01 to 0.1
CN1CCN(c2ccc(Nc3ncc4c(=O)n(-c5ccccc5)c5nccn5c4n3)cc2)CC1 [Example 39, 2-{[4-(4-methylpiperazin-1-yl)phenyl]amino}-6-phenylimidazo[1,2-a]pyrimido[5,4-e]pyrimidin-5(6H)-one] | 0.01 to 0.1
Cc1ccc(-n2c(=O)c3cnc(Nc4ccc(N5CCN(C)CC5)cc4)nc3n3ccnc23)c(Cl)c1 [Example 40, 6-(2-chloro-4-methylphenyl)-2-{[4-(4-methylpiperazin-1-yl)phenyl]amino}imidazo[1,2-a]pyrimido[5,4-e]pyrimidin-5(6H)-one] | < 0.01
Cc1ccccc1-n1c(=O)c2cnc(Nc3ccc(N4CCN(C)CC4)cc3)nc2n2ccnc12 [Example 14, 6-(2-methylphenyl)-2-{[4-(4-methylpiperazin-1-yl)phenyl]amino}imidazo[1,2-a]pyrimido[5,4-e]pyrimidin-5(6H)-one] | < 0.01
O=c1c2cnc(Nc3ccc(N4CCN(CC5CCCCC5)CC4)cc3)nc2n2ccnc2n1-c1ccccc1Cl [Example 30, 6-(2-chlorophenyl)-2-({4-[4-(cyclohexylmethyl)piperazin-1-yl]phenyl}amino)imidazo[1,2-a]pyrimido[5,4-e]pyrimidin-5(6H)-one] | < 0.01
CC(=O)N1CCN(c2ccc(Nc3ncc4c(=O)n(-c5ccccc5Cl)c5nccn5c4n3)cc2)CC1 [Example 13, 2-{[4-(4-acetylpiperazin-1-yl)phenyl]amino}-6-(2-chlorophenyl)imidazo[1,2-a]pyrimido[5,4-e]pyrimidin-5(6H)-one] | < 0.01
COc1cc(Nc2ncc3c(=O)n(-c4ccccc4Cl)c4nccn4c3n2)ccc1N1CCN(C)CC1 [Example 65, 6-(2-chlorophenyl)-2-{[3-methoxy-4-(4-methylpiperazin-1-yl)phenyl]amino}imidazo[1,2-a]pyrimido[5,4-e]pyrimidin-5(6H)-one] | < 0.01
Cc1cc(OCCCN2CCN(C)CC2)ccc1Nc1ncc2c(=O)n(-c3ccccc3Cl)c3nccn3c2n1 [Example 77, 6-(2-chlorophenyl)-2-({2-methyl-4-[3-(4-methylpiperazin-1-yl)propoxy]phenyl}amino)imidazo[1,2-a]pyrimido[5,4-e]pyrimidin-5(6H)-one] | > 0.1
O=c1c2cnc(Nc3ccc(CN4CCCC4)cc3)nc2n2ccnc2n1-c1ccccc1Cl [Example 9, 6-(2-chlorophenyl)-2-{[4-(pyrrolidin-1-ylmethyl)phenyl]amino}imidazo[1,2-a]pyrimido[5,4-e]pyrimidin-5(6H)-one] | < 0.01
CN1CCCc2cc(Nc3ncc4c(=O)n(-c5ccccc5Cl)c5nccn5c4n3)ccc21 [Example 92, 6-(2-chlorophenyl)-2-[(1-methyl-1,2,3,4-tetrahydroquinolin-6-yl)amino]imidazo[1,2-a]pyrimido[5,4-e]pyrimidin-5(6H)-one] | < 0.01

The next lines start with the values.

Ki [µM] | SMILES
< 0.01 | CC1(C)CN(CC2CC2)Cc2cc(Nc3ncc4c(=O)n(-c5ccccc5Cl)c5nccn5c4n3)ccc21 [Example 130, 6-(2-chlorophenyl)-2-{[2-(cyclopropylmethyl)-4,4-dimethyl-1,2,3,4-tetrahydroisoquinolin-7-yl]amino}imidazo[1,2-a]pyrimido[5,4-e]pyrimidin-5(6H)-one]
< 0.01 | CC1(C)CN(C(=O)CO)Cc2cc(Nc3ncc4c(=O)n(-c5c(F)cccc5Cl)c5nccn5c4n3)ccc21 [Example 316, 6-(2-chloro-6-fluorophenyl)-2-{[2-(hydroxyacetyl)-4,4-dimethyl-1,2,3,4-tetrahydroisoquinolin-7-yl]amino}imidazo[1,2-a]pyrimido[5,4-e]pyrimidin-5(6H)-one]
< 0.01 | O=c1c2cnc(Nc3ccc4c(c3)CC(NC3CC3)C4)nc2n2ccnc2n1-c1c(F)cccc1Cl (stereo not shown) [Example 227, 6-(2-chloro-6-fluorophenyl)-2-{[2-(cyclopropylamino)-2,3-dihydro-1H-inden-5-yl]amino}imidazo[1,2-a]pyrimido[5,4-e]pyrimidin-5(6H)-one]
0.01 to 0.1 | CC(C)n1c(=O)c2cnc(Nc3ccc(N4CCN(C)CC4)cc3)nc2n2ccnc12 [Example 346, 2-{[4-(4-methylpiperazin-1-yl)phenyl]amino}-6-(propan-2-yl)imidazo[1,2-a]pyrimido[5,4-e]pyrimidin-5(6H)-one]
< 0.01 | Cc1cc(Nc2ncc3c(=O)n(-c4c(Cl)cc(F)cc4Cl)c4nccn4c3n2)ccc1N1CCCN(C)CC1 [Example 124, 6-(2,6-dichloro-4-fluorophenyl)-2-{[3-methyl-4-(4-methyl-1,4-diazepan-1-yl)phenyl]amino}imidazo[1,2-a]pyrimido[5,4-e]pyrimidin-5(6H)-one]
< 0.01 | O=c1c2cnc(Nc3ccc(N4CC5(CCNC5)C4)cc3)nc2n2ccnc2n1-c1c(Cl)cccc1Cl [Example 313, 2-{[4-(2,6-diazaspiro[3.4]oct-2-yl)phenyl]amino}-6-(2,6-dichlorophenyl)imidazo[1,2-a]pyrimido[5,4-e]pyrimidin-5(6H)-one]
< 0.01 | CNC(=O)N1Cc2cc(Nc3ncc4c(=O)n(-c5c(F)cccc5Cl)c5nccn5c4n3)ccc2C2(CC2)C1 [Example 300, 7′-{[6-(2-chloro-6-fluorophenyl)-5-oxo-5,6-dihydroimidazo[1,2-a]pyrimido[5,4-e]pyrimidin-2-yl]amino}-N-methyl-1′H-spiro[cyclopropane-1,4′-isoquinoline]-2′(3′H)-carboxamide]
0.01 to 0.1 | Cc1ccc2nc(CCc3ccc(Nc4ncc5c(=O)n(-c6ccccc6Cl)c6nccn6c5n4)cc3)ccc2c1 [Example 361, 6-(2-chlorophenyl)-2-({4-[2-(6-methylquinolin-2-yl)ethyl]phenyl}amino)imidazo[1,2-a]pyrimido[5,4-e]pyrimidin-5(6H)-one]
< 0.01 | CN(C)CCCN(C)c1ccc(Nc2ncc3c(=O)n(-c4ccccc4Cl)c4nccn4c3n2)cc1 [Example 261, 6-(2-chlorophenyl)-2-[(4-{[3-(dimethylamino)propyl](methyl)amino}phenyl)amino]imidazo[1,2-a]pyrimido[5,4-e]pyrimidin-5(6H)-one]
< 0.01 | CN(C)CCN(C)c1ccc(Nc2ncc3c(=O)n(-c4ccccc4Cl)c4nccn4c3n2)cc1 [Example 263, 6-(2-chlorophenyl)-2-[(4-{[2-(dimethylamino)ethyl](methyl)amino}phenyl)amino]imidazo[1,2-a]pyrimido[5,4-e]pyrimidin-5(6H)-one]
< 0.01 | CN1C(C)(C)c2ccc(Nc3ncc4c(=O)n(-c5c(Cl)cccc5Cl)c5nccn5c4n3)cc2C1(C)C [Example 177, 6-(2,6-dichlorophenyl)-2-[(1,1,2,3,3-pentamethyl-2,3-dihydro-1H-isoindol-5-yl)amino]imidazo[1,2-a]pyrimido[5,4-e]pyrimidin-5(6H)-one]
< 0.01 | CN1Cc2cc(Nc3ncc4c(=S)n(-c5ccccc5Cl)c5nccn5c4n3)ccc2C2(CC2)C1 [Example 355, 6-(2-chlorophenyl)-2-[(2′-methyl-2′,3′-dihydro-1′H-spiro[cyclopropane-1,4′-isoquinolin]-7′-yl)amino]imidazo[1,2-a]pyrimido[5,4-e]pyrimidine-5(6H)-thione]
< 0.01 | O=c1c2cnc(Nc3ccc(N4CCN5CCC[C@H]5C4)cc3)nc2n2ccnc2n1-c1ccccc1Cl [Example 325, 6-(2-chlorophenyl)-2-({4-[(8aS)-hexahydropyrrolo[1,2-a]pyrazin-2(1H)-yl]phenyl}amino)imidazo[1,2-a]pyrimido[5,4-e]pyrimidin-5(6H)-one]
< 0.01 | O=c1c2cnc(Nc3ccc4c(c3)CCN(C3CC3)CC4)nc2n2ccnc2n1-c1ccccc1Cl [Example 184, 6-(2-chlorophenyl)-2-[(3-cyclopropyl-2,3,4,5-tetrahydro-1H-3-benzazepin-7-yl)amino]imidazo[1,2-a]pyrimido[5,4-e]pyrimidin-5(6H)-one]
> 0.1 | O=C(O)c1ccc(Nc2ncc3c(=O)n(-c4ccccc4Cl)c4nccn4c3n2)cc1 [Example 342, 4-{[6-(2-chlorophenyl)-5-oxo-5,6-dihydroimidazo[1,2-a]pyrimido[5,4-e]pyrimidin-2-yl]amino}benzoic acid]
0.01 to 0.1 | O=c1c2cnc(Nc3ccc(N4CCN(c5ccc(F)cc5)CC4)cc3)nc2n2ccnc2n1-c1ccccc1Cl [Example 254, 6-(2-chlorophenyl)-2-({4-[4-(4-fluorophenyl)piperazin-1-yl]phenyl}amino)imidazo[1,2-a]pyrimido[5,4-e]pyrimidin-5(6H)-one]
0.01 to 0.1 | O=c1c2cnc(Nc3ccc(N4CCN(C5COC5)CC4)cc3)nc2n2ccnc2n1-c1ccccc1Cl [Example 211, 6-(2-chlorophenyl)-2-({4-[4-(oxetan-3-yl)piperazin-1-yl]phenyl}amino)imidazo[1,2-a]pyrimido[5,4-e]pyrimidin-5(6H)-one]

Reference: patent publication US8710065B2, “Tricyclic inhibitors of kinases” (AbbVie Inc., priority 2011, dated 2014)
